In patent publication US20240109885A1, “2,3-DIHYDRO-1H-PYRROLO[3,2-B]PYRIDINE DERIVATIVE, PREPARATION METHOD THEREFOR, AND APPLICATION THEREOF” (Abbisko Therapeutics Co., Ltd, priority 2020, published 2024):

Assays:
Type in all cases: cell-based
[1] = target: Ba/F3 EGFR-D770-N771ins_SVD (Homo sapiens, UniProt P00533, DUP768-770, cells depend on it); assay: Cell proliferation assay (CellTiter-Glo), Ba/F3 EGFR-D770-N771ins_SVD cells; details: 72 hrs, CTG assay, * = average of multiple measurements, read-out: Ba/F3 EGFR-D770-N771ins_SVD (nM), IC50 of cell proliferation
Chain of Ba/F3 EGFR-D770-N771ins_SVD (P00533 with tags, fused parts or gaps DUP768-770): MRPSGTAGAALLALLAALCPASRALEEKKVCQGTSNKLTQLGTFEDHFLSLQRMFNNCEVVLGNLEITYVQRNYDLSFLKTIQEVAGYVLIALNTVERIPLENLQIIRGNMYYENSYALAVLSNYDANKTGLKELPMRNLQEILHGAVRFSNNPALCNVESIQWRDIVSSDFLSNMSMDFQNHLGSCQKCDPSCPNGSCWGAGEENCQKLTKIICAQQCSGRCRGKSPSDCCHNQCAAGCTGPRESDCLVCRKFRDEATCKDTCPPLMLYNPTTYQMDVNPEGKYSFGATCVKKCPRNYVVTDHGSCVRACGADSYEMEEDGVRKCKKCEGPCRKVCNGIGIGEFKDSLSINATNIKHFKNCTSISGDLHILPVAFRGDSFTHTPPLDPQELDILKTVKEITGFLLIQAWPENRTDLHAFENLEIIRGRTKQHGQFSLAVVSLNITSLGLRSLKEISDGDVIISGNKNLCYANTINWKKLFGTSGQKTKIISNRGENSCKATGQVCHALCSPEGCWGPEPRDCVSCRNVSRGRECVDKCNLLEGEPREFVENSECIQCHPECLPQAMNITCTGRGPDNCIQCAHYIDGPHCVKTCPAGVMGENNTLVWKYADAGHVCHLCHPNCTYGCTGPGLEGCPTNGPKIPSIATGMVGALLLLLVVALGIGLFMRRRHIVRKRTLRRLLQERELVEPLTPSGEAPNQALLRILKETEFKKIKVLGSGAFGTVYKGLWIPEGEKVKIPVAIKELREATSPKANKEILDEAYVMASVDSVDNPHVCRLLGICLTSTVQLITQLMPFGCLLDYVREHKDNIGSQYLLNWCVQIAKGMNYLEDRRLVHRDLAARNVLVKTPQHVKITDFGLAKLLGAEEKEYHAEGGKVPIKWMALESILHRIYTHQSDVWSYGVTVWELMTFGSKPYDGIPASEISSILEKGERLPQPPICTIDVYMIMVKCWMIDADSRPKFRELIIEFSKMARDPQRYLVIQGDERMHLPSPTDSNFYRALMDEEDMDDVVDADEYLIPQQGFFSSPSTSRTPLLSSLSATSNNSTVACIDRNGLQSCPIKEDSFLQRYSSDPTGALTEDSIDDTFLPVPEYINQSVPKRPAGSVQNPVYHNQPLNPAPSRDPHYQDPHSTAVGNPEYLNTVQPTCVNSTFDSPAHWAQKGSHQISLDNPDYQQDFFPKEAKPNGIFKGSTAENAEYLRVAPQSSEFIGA
In short: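 Cells seeded overnight, then treated in triplicate with 9 concentrations (3.16-fold dilutions; 0.1% DMSO final) for 72 h at 37 °C, 5% CO2. Viability by CellTiter-Glo luminescence, normalised to cell and medium controls; IC50 (nM) from nonlinear sigmoidal fit.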

[2] = test system: A431 (EGFR-WT); assay: Cell proliferation assay (CellTiter-Glo), A431 cells; details: Homo sapiens, A-431, 72 hrs, CTG assay, * = average of multiple measurements
Experimental: (§1) I. Cell proliferation assay (i) Reagents and consumables • Fetal bovine serum (FBS) (GBICO, Cat #10099-141); • CellTiter-Glo® Luminescent Cell Viability Assay Kit (Promega, Cat #G7572); • Black transparent flat-bottomed 96-well plate (Corning®, Cat #3603).
(§2) • SpectraMax Multi-Label Microplate Detector MD, 2104-0010A; • CO2 incubator, Thermo Scientific 3100 Series; • Biosafety cabinet, Thermo Scientific, 1300 Series type A2; • Inverted microscope, Olympus, CKX41SF; • Siemens refrigerator KK25E76TI. (iii) Cell lines and culture conditions
(§3) (iv) Experimental procedures 1. Cell culture and seeding: • (1) Cells in the logarithmic growth phase were harvested, and counted using a platelet counter. Cell viability was detected by the trypan blue exclusion assay to ensure that the cell viability was above 90%. • (2) The cell concentration was adjusted to achieve the final density; and 90 μL of the cell suspension was added to the 96-well plate. • (3) The cells were incubated in the 96-well plate overnight at 37° C. in the presence of 5% CO2 with 95% humidity. 2. TO benchmark data: • (1) 10 μL of PBS was added to each well of the TO flat plate containing the cells. • (2) The CTG reagent was thawed, and the cell plate was equilibrated to room temperature for 30 min. • (3) An equal volume of CTG solution was added to each well. • (4) The cells were shaken for 5 min on an orbital shaker for lysis. • (5) The cell plate was left at room temperature for 20 min to stabilize luminescent signals. • (6) The values of TO luminescent signals were read. 3. Compound dilution and addition • (1) According to the compound information table, a corresponding volume of DMSO was added to the corresponding compound powder to prepare a 10 mM stock solution. • (2) Compound solutions diluted at 1000 fold and 3.16 fold were prepared. • (3) The compound solution diluted at 1000 fold was diluted at 100 fold with PBS, to prepare the compound solutions at 10 fold in 9 concentrations, with the maximum concentration of […]; and the compound solution was diluted at 3.16 fold. 10 μL of medicament solution was added to each well of the seeded 96-well plate. Three replicate wells were provided for each concentration of the compound, and the final concentration of DMSO was 0.1%. • (4) Cells were placed in the 96-well plate containing the medicament and subsequently cultured for 72 hrs at 37° C. in the presence of 5% CO2 with 95% humidity, and then, CTG assay was conducted. 4. Reading of luminescent signals • (1) The CTG reagent was thawed, and the cell plate was equilibrated to room temperature for 30 min. • (2) An equal volume of CTG solution was added to each well. • (3) The cells were shaken for 5 min on an orbital shaker for lysis.
(§4) (4) The cell plate was left at room temperature for 20 min to stabilize the luminescent signals. • (5) Luminescent values were read. Data processing
(§5) The data were analyzed using software GraphPad Prism 7.0, and fitted by the nonlinear S-curve regression to obtain a dose-effect curve, based on which the IC50 value (unit: nM) was calculated, with the specific test results shown in Table 1.
(§6) Cell viability (%)=(Lum test medicament-Lum culture medium control)/(Lum cell control-Lum culture medium control)×100%.

[3] = target: Ba/F3 EGFR-V769_D770insASV (Homo sapiens, UniProt P00533, DUP767-769, cells depend on it); assay: Cell proliferation assay (CellTiter-Glo), Ba/F3 EGFR-V769_D770insASV cells; details: 72 hrs, CTG assay, * = average of multiple measurements, read-out: Ba/F3 EGFR-V769_D770insASV (nM), IC50 of cell proliferation
Chain of Ba/F3 EGFR-V769_D770insASV (P00533 with tags, fused parts or gaps DUP767-769): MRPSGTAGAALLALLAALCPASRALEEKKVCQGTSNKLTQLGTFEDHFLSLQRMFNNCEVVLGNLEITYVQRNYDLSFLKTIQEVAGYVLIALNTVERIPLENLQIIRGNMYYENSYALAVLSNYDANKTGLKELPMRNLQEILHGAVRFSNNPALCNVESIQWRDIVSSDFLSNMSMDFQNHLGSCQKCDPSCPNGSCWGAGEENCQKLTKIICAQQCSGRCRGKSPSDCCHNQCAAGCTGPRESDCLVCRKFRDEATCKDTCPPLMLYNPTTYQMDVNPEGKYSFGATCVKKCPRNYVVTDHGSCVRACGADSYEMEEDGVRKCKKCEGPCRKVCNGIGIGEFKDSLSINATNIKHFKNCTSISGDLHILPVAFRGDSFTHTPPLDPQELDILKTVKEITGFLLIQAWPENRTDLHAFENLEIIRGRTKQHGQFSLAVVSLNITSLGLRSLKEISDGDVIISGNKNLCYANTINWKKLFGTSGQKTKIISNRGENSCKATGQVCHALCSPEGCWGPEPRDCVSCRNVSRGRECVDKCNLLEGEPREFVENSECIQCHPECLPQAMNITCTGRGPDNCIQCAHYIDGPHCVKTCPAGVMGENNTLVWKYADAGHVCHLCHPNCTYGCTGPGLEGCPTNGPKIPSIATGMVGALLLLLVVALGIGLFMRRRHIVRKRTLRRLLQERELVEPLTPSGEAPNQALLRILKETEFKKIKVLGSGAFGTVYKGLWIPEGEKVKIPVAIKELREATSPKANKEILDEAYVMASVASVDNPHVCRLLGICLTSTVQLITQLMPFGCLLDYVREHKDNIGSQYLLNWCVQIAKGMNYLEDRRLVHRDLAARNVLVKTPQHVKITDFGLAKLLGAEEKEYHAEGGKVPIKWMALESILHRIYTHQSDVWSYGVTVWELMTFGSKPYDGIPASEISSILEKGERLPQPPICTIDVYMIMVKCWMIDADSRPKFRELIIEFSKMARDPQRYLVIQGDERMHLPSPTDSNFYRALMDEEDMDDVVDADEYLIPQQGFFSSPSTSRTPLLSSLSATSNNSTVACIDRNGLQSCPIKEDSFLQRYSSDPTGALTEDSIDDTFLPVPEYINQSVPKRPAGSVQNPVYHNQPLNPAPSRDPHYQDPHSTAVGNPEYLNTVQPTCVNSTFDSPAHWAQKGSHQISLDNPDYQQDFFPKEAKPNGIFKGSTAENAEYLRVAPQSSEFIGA
Experimental: as §1, §2, §3, §4, §5, §6

Structure (SMILES) | GI50 [1] | IC50 [2] | GI50 [3]
C=CC(=O)Nc1cc(Nc2nccc(N3CC4(CCCC4)c4nc(C)ccc43)n2)c(OC(F)F)cc1N(C)CCN(C)C [Example 39, N-(4-(difluoromethoxy)-2-((2-(dimethylamino)ethyl)(methyl)amino)-5-((4-(5′-methylspiro[cyclo-pentane-1,3′-pyrrolo[3,2-b]pyridin]-1′(2′H)-yl)pyrimidin-2-yl)amino)phenyl)acrylamide] | 24.9 nM | 396 nM | 35.8 nM
C=CC(=O)Nc1cc(Nc2nccc(N3CC4(CCCCC4)c4nc(C)ccc43)n2)c(OCC(F)(F)F)nc1N(C)CCN(C)C [Example 42, N-(2-((2-(dimethylamino)ethyl) (methyl)amino)-5-((4-(5′-methyl-spiro[cyclohexane-1,3′-pyrrolo[3,2-b]pyridin]-1′(2′H)-yl)pyrimidin-2-yl)amino)-6-(2,2,2-trifluoroethoxy)pyridin-3-yl)acrylamide] | 11.6 nM | 488 nM | 23.5 nM
C=CC(=O)Nc1cc(Nc2nccc(N3CC(C)(C)c4nc(C5CC5)ccc43)n2)c(OC(F)F)cc1N(C)CCN(C)C [Example 46, N-(5-((4-(5-cyclopropyl-3,3-dimethyl-2,3-dihydro-1H-pyrrolo[3,2-b]pyridin-1-yl)pyrimidin-2-yl)amino)-4-(difluoromethoxy)-2-((2-(dimethylamino)ethyl)(methyl)amino)phenyl)acrylamide] | 22.6 nM | 402 nM | 21.6 nM
C=CC(=O)Nc1cc(Nc2nccc(N3CC(C)(C)c4nc(C)ccc43)n2)c(OC(F)F)cc1N(C)CCN(C)C [Example 47, N-(4-(difluoromethoxy)-2-((2-(dimethylamino)ethyl)(methyl)amino)-5-((4-(3,3,5-trimethyl-2,3-dihydro-1H-pyrrolo[3,2-b]pyridin-1-yl)pyrimidin-2-yl)amino)phenyl) acrylamide] | 12.9 nM | 378 nM | 5.6 nM
C=CC(=O)Nc1cc(Nc2nccc(N3CC(C)(C)c4nc(-c5cnn(C)c5)ccc43)n2)c(OC)cc1N(C)CCN(C)C [Example 50, N-(5-((4-(3,3-dimethyl-5-(1-methyl-1H-pyrazol-4-yl)-2,3-dihydro-1H-pyrrolo[3,2-b]pyridin-1-yl)pyrimidin-2-yl)amino)-2-((2-(dimethylamino)ethyl)(methyl)amino)-4-methoxyphenyl)acrylamide] | 14.6 nM | 82.4 nM | 32.1 nM
C=CC(=O)Nc1cc(Nc2nccc(N3CC4(CCC4)c4nc(C)ccc43)n2)c(OC)cc1N(C)CCN(C)C [Example 52, N-(2-((2-(dimethylamino)ethyl) (methyl)amino)-4-methoxy-5-((4-(5′-methylspiro[cyclobutane-1,3′-pyrrolo[3,2-b]pyridin]-1′(2′H)-yl)pyrimidin-2-yl)amino)phenyl) acrylamide] | 32.9 nM | 189 nM | 54.2 nM
C=CC(=O)Nc1cc(Nc2nccc(N3CC4(CCC4)c4nc(C)ccc43)n2)c(OC)nc1N(C)CCN(C)C [Example 53, N-(2-((2-(dimethylamino)ethyl) (methyl)amino)-6-methoxy-5-((4-(5′-methylspiro[cyclobutane-1,3′-pyrrolo[3,2-b]pyridin]-1′(2′H)-yl)pyrimidin-2-yl)amino)pyridin-3-yl) acrylamide] | 14.8 nM | 96.9 nM | 26.3 nM
C#Cc1ccc2c(n1)C(C)(C)CN2c1ccnc(Nc2cc(NC(=O)C=C)c(N(C)CCN(C)C)cc2OC)n1 [Example 54, N-(2-((2-(dimethylamino)ethyl)(methyl)amino)-5-((4-(5-ethynyl-3,3-dimethyl-2,3-dihydro-1H-pyrrolo[3,2-b]pyridin-1-yl)pyrimidin-2-yl)amino)-4-methoxyphenyl)acrylamide] | 17.8 nM | 72.9 nM | 30.6 nM

Continued by falling GI50 [1], values first:

GI50 [1] | IC50 [2] | GI50 [3] | Structure (SMILES)
35.8 nM | 1070 nM | 11.7 nM | C=CC(=O)Nc1cc(Nc2nccc(N3CC(C)(C)c4ncccc43)n2)c(OC(F)F)cc1N(C)CCN(C)C [Example 45, N-(4-(difluoromethoxy)-5-((4-(3,3-dimethyl-2,3-dihydro-1H-pyrrolo [3,2-b]pyridin-1-yl)pyrimidin-2-yl)amino)-2-((2-(dimethylamino)ethyl)(methyl)amino)phenyl)acrylamide]
35.5 nM | 264 nM | 84.3 nM | C=CC(=O)Nc1cc(Nc2nccc(N3CC4(CCCC4)c4nc(C)ccc43)n2)c(OC)cc1N(C)CCN(C)C [Example 33, N-(2-((2-(dimethylamino)ethyl) (methyl)amino)-4-methoxy-5-((4-(5′-methylspiro[cyclopentane-1,3′-pyrrolo[3,2-b]pyridin]-1′(2′H)-yl)pyrimidin-2-yl)amino)phenyl)acrylamide]
34.8 nM | 620 nM | 123 nM | C=CC(=O)Nc1cc(Nc2nccc(N3CC(C)(C)c4nc(-n5ccnc5)ccc43)n2)c(OC)cc1N(C)CCN(C)C [Example 51, N-(5-((4-(5-(1H-imidazole-1-yl)-3,3-dimethyl-2,3-dihydro-1H-pyrrolo[3,2-b]pyridin-1-yl)pyrimidin-2-yl)amino)-2-((2-(dimethylamino)ethyl)(methyl)amino)-4-methoxyphenyl)acrylamide]
23.8 nM | 312 nM | 47 nM | C=CC(=O)Nc1cc(Nc2ncnc(N3CC4(CCC4)c4ncccc43)n2)c(OC)cc1N(C)CCN(C)C [Example 55, N-(2-((2-(dimethylamino)ethyl) (methyl)amino)-4-methoxy-5-((4-(spiro[cyclobutane-1,3′-pyrrolo[3,2-b]pyridin]-1′(2′H)-yl)-1,3,5-triazin-2-yl)amino)phenyl)acrylamide]
23.7 nM | 66 nM | 9.1 nM | C=CC(=O)Nc1cc(Nc2ncnc(N3CC(C)(C)c4nc(C)ccc43)n2)c(OC(C)C)nc1N(C)CCN(C)C [Example 48, N-(2-((2-(dimethylamino)ethyl) (methyl)amino)-6-isopropoxy-5-((4-(3,3,5-trimethyl-2,3-dihydro-1H-pyrrolo[3,2-b]pyridin-1-yl)-1,3,5-triazin-2-yl)amino)pyridin-3-yl) acrylamide]
22.5 nM | 47.7 nM | 68.4 nM | C=CC(=O)Nc1cc(Nc2ncnc(N3CC(C)(C)c4nc(Cl)c(C)cc43)n2)c(OC)cc1N(C)CCN(C)C [Example 34, N-(5-((4-(5-chloro-3,3,6-trimethyl-2,3-dihydro-1H-pyrrolo[3,2-b]pyridin-1-yl)-1,3,5-triazin-2-yl)amino)-2-((2-(dimethylamino)ethyl) (methyl)amino)-4-methoxyphenyl) acrylamide]
20.1 nM | 108 nM | 35 nM | C=CC(=O)Nc1cc(Nc2ncnc(N3CC(C)(C)c4nc(C)c(C)cc43)n2)c(OC(C)C)cc1N(C)CCN(C)C [Example 44, N-(2-((2-(dimethylamino)ethyl) (methyl)amino)-4-isopropoxy-5-((4-(3,3,5,6-tetramethyl-2,3-dihydro-1H-pyrrolo[3,2-b]pyridin-1-yl)-1,3,5-triazin-2-yl)amino)phenyl)acrylamide]
